Source: PubChem BioAssay AID256 (DTP/NCI, 2004)
“And” between values parts separate entries of the source, which are not always exact repeats. Equal values may be shown once. Toxic doses and inconclusive results are not listed.

System: CD2F1 mice, L1210 leukemia ip, survival T/C
Assay: NCI In Vivo Anticancer Drug Screen. Data for tumor model L1210 Leukemia (intraperitoneal) in CD2F1 (CDF1) mice
Conditions: higher = longer survival
How it was run: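 In this screen, transplantable tumors were grown in mice given either the compound or its vehicle. Results were expressed as the treated measurement relative to the control measurement.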

[1] = endpoint: mean survival time, dose: 6.25 mg/kg/injection, schedule: Q01DX009 (ip), vehicle: saline with Tween-80
[2] = endpoint: mean survival time, dose: 12.5 mg/kg/injection, schedule: Q01DX009 (ip), vehicle: saline with Tween-80
[3] = endpoint: mean survival time, dose: 50.0 mg/kg/injection, schedule: Q01DX009 (ip), vehicle: saline with Tween-80
[4] = endpoint: mean survival time, dose: 100.0 mg/kg/injection, schedule: Q01DX009 (ip), vehicle: saline with Tween-80
[5] = endpoint: mean survival time, dose: 100.0 mg/kg/injection, schedule: Q04DX003 (ip), vehicle: saline with Tween-80
[6] = endpoint: mean survival time, dose: 200.0 mg/kg/injection, schedule: Q01DX009 (ip), vehicle: saline
[7] = endpoint: mean survival time, dose: 200.0 mg/kg/injection, schedule: Q01DX009 (ip), vehicle: saline with Tween-80
[8] = endpoint: mean survival time, dose: 400.0 mg/kg/injection, schedule: Q01DX009 (ip), vehicle: saline with Tween-80
[9] = endpoint: mean survival time, dose: 100.0 mg/kg/injection, schedule: Q01DX001 (ip), vehicle: saline
[10] = endpoint: mean survival time, dose: 100.0 mg/kg/injection, schedule: Q01DX001 (ip), vehicle: saline with Tween-80
[11] = endpoint: mean survival time, dose: 200.0 mg/kg/injection, schedule: Q01DX001 (ip), vehicle: saline with Tween-80
[12] = endpoint: mean survival time, dose: 400.0 mg/kg/injection, schedule: Q01DX001 (ip), vehicle: saline with Tween-80
[13] = endpoint: mean survival time, dose: 200.0 mg/kg/injection, schedule: Q04DX003 (ip), vehicle: saline with Tween-80
[14] = endpoint: mean survival time, dose: 400.0 mg/kg/injection, schedule: Q04DX003 (ip), vehicle: saline with Tween-80

SMILES: COC(=O)C=P(c1ccccc1)(c1ccccc1)c1ccccc1
- T/C [1]: 97 % of control
- T/C (endpoint: mean survival time, dose: 6.25 mg/kg/injection, schedule: Q04DX003 (ip), vehicle: saline with Tween-80): 98 % of control
- T/C [2]: 103 % of control
- T/C (endpoint: mean survival time, dose: 12.5 mg/kg/injection, schedule: Q04DX003 (ip), vehicle: saline with Tween-80): 101 % of control
- T/C (endpoint: mean survival time, dose: 25.0 mg/kg/injection, schedule: Q01DX009 (ip), vehicle: saline with Tween-80): 97 % of control and 94 % of control
- T/C (endpoint: mean survival time, dose: 25.0 mg/kg/injection, schedule: Q04DX003 (ip), vehicle: saline with Tween-80): 95 % of control
- T/C [3]: 95 % of control
- T/C [4]: 100 % of control
- T/C [5]: 97 % of control

SMILES: O=S1(=O)CC23C=CC=CC2(CCCC3)C1Cl (stereo not drawn)
- T/C (endpoint: mean survival time, dose: 100.0 mg/kg/injection, schedule: Q04DX003 (ip), vehicle: other): 94 % of control

SMILES: CNCC(=O)NCCCCCCCCCCNC(=O)CNC
- T/C (endpoint: mean survival time, dose: 12.5 mg/kg/injection, schedule: Q01DX010 (ip), vehicle: saline): 100 % of control
- T/C (endpoint: mean survival time, dose: 25.0 mg/kg/injection, schedule: Q01DX010 (ip), vehicle: saline): 101 % of control
- T/C (endpoint: mean survival time, dose: 50.0 mg/kg/injection, schedule: Q01DX010 (ip), vehicle: saline): 97 % of control
- T/C (endpoint: mean survival time, dose: 100.0 mg/kg/injection, schedule: Q01DX010 (ip), vehicle: saline): 95 % of control

SMILES: CCOC(=O)Nc1cc(NC(c2ccc(Cl)cc2)c2ccc(Cl)cc2)c2[nH]cnc2n1
- T/C (endpoint: mean survival time, dose: 75.0 mg/kg/injection, schedule: Q01DX001 (ip), vehicle: other): 117 % of control

SMILES: CC[n+]1ccc(Nc2ccc(NC(=O)c3ccc(C(=O)Nc4ccc(Nc5cc[n+](CC)c(N)n5)cc4)cc3)cc2)nc1N
- T/C (endpoint: mean survival time, dose: 12.5 mg/kg/injection, schedule: Q01DX009 (ip), vehicle: saline): 172 % of control
- T/C (endpoint: mean survival time, dose: 25.0 mg/kg/injection, schedule: Q01DX009 (ip), vehicle: saline): 325 % of control
- T/C (endpoint: mean survival time, dose: 40.0 mg/kg/injection, schedule: Q01DX009 (ip), vehicle: saline): 265 % of control
- T/C (endpoint: mean survival time, dose: 50.0 mg/kg/injection, schedule: Q01DX009 (ip), vehicle: saline): 275 % of control
- T/C (endpoint: mean survival time, dose: 59.0 mg/kg/injection, schedule: Q01DX009 (ip), vehicle: saline): 262 % of control
- T/C (endpoint: mean survival time, dose: 89.0 mg/kg/injection, schedule: Q01DX009 (ip), vehicle: saline): 212 % of control
- T/C (endpoint: mean survival time, dose: 150.0 mg/kg/injection, schedule: Q01DX001 (ip), vehicle: Klucel (hydroxypropylcellulose) (HPC)): 167 % of control
- T/C [6]: 118 % of control
- T/C (endpoint: mean survival time, dose: 225.0 mg/kg/injection, schedule: Q01DX001 (ip), vehicle: Klucel (hydroxypropylcellulose) (HPC)): 315 % of control

SMILES: COC1OC(CN2C(=O)c3ccccc3C2=O)C2OC(C)(C)OC12 (stereo not drawn)
- T/C [4]: 98 % of control
- T/C [7]: 94 % of control
- T/C [8]: 98 % of control

SMILES: Clc1ccc(-c2nnn3ccccc23)cc1
- T/C (endpoint: mean survival time, dose: 12.5 mg/kg/injection, schedule: Q01DX001 (ip), vehicle: saline with Tween-80): 107 % of control
- T/C (endpoint: mean survival time, dose: 25.0 mg/kg/injection, schedule: Q01DX001 (ip), vehicle: saline with Tween-80): 86 % of control
- T/C [9]: 97 % of control
- T/C (endpoint: mean survival time, dose: 200.0 mg/kg/injection, schedule: Q01DX001 (ip), vehicle: saline): 89 % of control

SMILES: Cc1cc(O)c(O)c([N+](=O)[O-])c1
- T/C [4]: 95 % of control
- T/C [7]: 97 % of control
- T/C [8]: 97 % of control

SMILES: Cc1ccc(S(=O)(=O)OCC2OCOC(C(O)CI)C2O)cc1 (stereo not drawn)
- T/C [10]: 92 % of control
- T/C [11]: 92 % of control
- T/C [12]: 102 % of control

SMILES: O=C1C=CC(=O)N1c1cccc(N2C(=O)C=CC2=O)c1
- T/C (endpoint: mean survival time, dose: 4.0 mg/kg/injection, schedule: Q01DX009 (ip), vehicle: saline): 96 % of control
- T/C (endpoint: mean survival time, dose: 8.0 mg/kg/injection, schedule: Q01DX009 (ip), vehicle: saline): 106 % of control

SMILES: CS(C)=O
- T/C (endpoint: mean survival time, dose: 46.87 mg/kg/injection, schedule: Q01DX009 (ip), vehicle: saline): 95 % of control
- T/C (endpoint: mean survival time, dose: 93.75 mg/kg/injection, schedule: Q01DX009 (ip), vehicle: saline): 100 % of control and 103 % of control
- T/C (endpoint: mean survival time, dose: 187.5 mg/kg/injection, schedule: Q01DX009 (ip), vehicle: saline): 100 % of control and 101 % of control
- T/C (endpoint: mean survival time, dose: 375.0 mg/kg/injection, schedule: Q01DX009 (ip), vehicle: saline): 95 % of control and 100 % of control
- T/C (endpoint: mean survival time, dose: 750.0 mg/kg/injection, schedule: Q01DX009 (ip), vehicle: saline): 97 % of control and 100 % of control
- T/C (endpoint: mean survival time, dose: 1500.0 mg/kg/injection, schedule: Q01DX009 (ip), vehicle: saline): 100 % of control
- T/C (endpoint: mean survival time, dose: 1.5 grams/kg/injection, schedule: Q01DX009 (ip), vehicle: saline): 87 % of control and 100 % of control
- T/C (endpoint: mean survival time, dose: 3.0 grams/kg/injection, schedule: Q01DX009 (ip), vehicle: saline): 95 % of control
- T/C (endpoint: mean survival time, dose: 6.0 grams/kg/injection, schedule: Q01DX009 (ip), vehicle: saline): 89 % of control and 100 % of control

SMILES: O=C1Nc2ccc([N+](=O)[O-])c3c([N+](=O)[O-])ccc1c23
- T/C [5]: 98 % of control
- T/C [13]: 97 % of control
- T/C [14]: 102 % of control

SMILES: Cc1ccc(C(OS(=O)(=O)c2ccc(C)cc2)C(F)(F)F)cc1 (stereo not drawn)
- T/C [10]: 104 % of control
- T/C [5]: 107 % of control
- T/C [11]: 108 % of control
- T/C [13]: 101 % of control
- T/C [12]: 106 % of control
- T/C [14]: 98 % of control

SMILES: CC(=N)N(C)CC(=O)O
- T/C (endpoint: mean survival time, dose: 100.0 mg/kg/injection, schedule: Q04DX002 (ip), vehicle: saline): 103 % of control
- T/C (endpoint: mean survival time, dose: 200.0 mg/kg/injection, schedule: Q04DX002 (ip), vehicle: saline): 103 % of control
- T/C (endpoint: mean survival time, dose: 400.0 mg/kg/injection, schedule: Q04DX002 (ip), vehicle: saline): 100 % of control

SMILES: CC12c3ccccc3C(c3ccccc31)C1C(=O)OC(=O)C12 (stereo not drawn)
- T/C [3]: 95 % of control
- T/C [4]: 103 % of control

SMILES: CC(C)(C#N)Nc1ccccc1
- T/C (endpoint: mean survival time, dose: 3.13 mg/kg/injection, schedule: Q01DX009 (ip), vehicle: saline): 100 % of control
- T/C [1]: 91 % of control
- T/C (endpoint: mean survival time, dose: 6.25 mg/kg/injection, schedule: Q01DX009 (ip), vehicle: saline): 94 % of control
- T/C [2]: 94 % of control

SMILES: Cc1cnc(O[Si](C)(C)C)nc1O[Si](C)(C)C
- T/C [4]: 97 % of control
- T/C [5]: 97 % of control
- T/C [7]: 96 % of control
- T/C [13]: 98 % of control
- T/C [8]: 103 % of control
- T/C [14]: 101 % of control

SMILES: C1=CSCCC1
- T/C (endpoint: mean survival time, dose: 25.0 mg/kg/injection, schedule: Q04DX002 (ip), vehicle: saline + alcohol): 102 % of control
- T/C (endpoint: mean survival time, dose: 50.0 mg/kg/injection, schedule: Q04DX002 (ip), vehicle: saline + alcohol): 94 % of control
- T/C (endpoint: mean survival time, dose: 100.0 mg/kg/injection, schedule: Q04DX002 (ip), vehicle: saline + alcohol): 90 % of control

SMILES: O=C1C2C(c3ccccc3)=C(c3ccccc3)C1[C@@]1(c3ccccc3)C(c3ccccc3)=CC(=O)[C@@H]21 (stereo partly drawn)
- T/C [10]: 87 % of control
- T/C [12]: 89 % of control

SMILES: COC(=O)C(N)CSCc1ccccc1 (stereo not drawn)
- T/C [9]: 100 % of control
- T/C (endpoint: mean survival time, dose: 100.0 mg/kg/injection, schedule: Q01DX009 (ip), vehicle: saline): 102 % of control
- T/C [6]: 97 % of control
- T/C (endpoint: mean survival time, dose: 400.0 mg/kg/injection, schedule: Q01DX001 (ip), vehicle: saline): 100 % of control
- T/C (endpoint: mean survival time, dose: 400.0 mg/kg/injection, schedule: Q01DX009 (ip), vehicle: saline): 98 % of control

SMILES: CC1=NC2=Nc3cc[n+](C4OC(CO)C(O)C4O)c(=O)n3CC2=CN1C (stereo not drawn)
- T/C (endpoint: median survival time, dose: 12.5 mg/kg/injection, schedule: Q01DX005 (ip), vehicle: water): 107 % of control
- T/C (endpoint: median survival time, dose: 25.0 mg/kg/injection, schedule: Q01DX005 (ip), vehicle: water): 105 % of control
- T/C (endpoint: median survival time, dose: 50.0 mg/kg/injection, schedule: Q01DX005 (ip), vehicle: water): 105 % of control
- T/C (endpoint: median survival time, dose: 100.0 mg/kg/injection, schedule: Q01DX005 (ip), vehicle: water): 105 % of control and 107 % of control
- T/C (endpoint: median survival time, dose: 200.0 mg/kg/injection, schedule: Q01DX005 (ip), vehicle: water): 103 % of control and 105 % of control
- T/C (endpoint: median survival time, dose: 400.0 mg/kg/injection, schedule: Q01DX005 (ip), vehicle: water): 104 % of control

SMILES: CCc1ccc(O)cc1O
- T/C (endpoint: mean survival time, dose: 25.0 mg/kg/injection, schedule: Q04DX003 (ip), vehicle: saline): 97 % of control
- T/C (endpoint: mean survival time, dose: 50.0 mg/kg/injection, schedule: Q04DX003 (ip), vehicle: saline): 102 % of control
- T/C (endpoint: mean survival time, dose: 100.0 mg/kg/injection, schedule: Q04DX003 (ip), vehicle: saline): 94 % of control and 96 % of control

SMILES: C1CCC2(CC1)NCCO2
- T/C (endpoint: mean survival time, dose: 100.0 mg/kg/injection, schedule: Q01DX009 (ip), vehicle: saline sonified): 96 % of control
- T/C (endpoint: mean survival time, dose: 200.0 mg/kg/injection, schedule: Q01DX009 (ip), vehicle: saline sonified): 93 % of control
